Results on ten compounds are retold here after ChEMBL document CHEMBL1201862, “PubChem BioAssay data set” (2004).

The subject of one assay is Escherichia coli. Kind of assay: microbe, parasite or virus in culture.
In assay [1] the target is T1, Tyrosine-protein phosphatase non-receptor type 22 (Homo sapiens, UniProt Q9Y2R2).
T1 sequence (Q9Y2R2 whole entry): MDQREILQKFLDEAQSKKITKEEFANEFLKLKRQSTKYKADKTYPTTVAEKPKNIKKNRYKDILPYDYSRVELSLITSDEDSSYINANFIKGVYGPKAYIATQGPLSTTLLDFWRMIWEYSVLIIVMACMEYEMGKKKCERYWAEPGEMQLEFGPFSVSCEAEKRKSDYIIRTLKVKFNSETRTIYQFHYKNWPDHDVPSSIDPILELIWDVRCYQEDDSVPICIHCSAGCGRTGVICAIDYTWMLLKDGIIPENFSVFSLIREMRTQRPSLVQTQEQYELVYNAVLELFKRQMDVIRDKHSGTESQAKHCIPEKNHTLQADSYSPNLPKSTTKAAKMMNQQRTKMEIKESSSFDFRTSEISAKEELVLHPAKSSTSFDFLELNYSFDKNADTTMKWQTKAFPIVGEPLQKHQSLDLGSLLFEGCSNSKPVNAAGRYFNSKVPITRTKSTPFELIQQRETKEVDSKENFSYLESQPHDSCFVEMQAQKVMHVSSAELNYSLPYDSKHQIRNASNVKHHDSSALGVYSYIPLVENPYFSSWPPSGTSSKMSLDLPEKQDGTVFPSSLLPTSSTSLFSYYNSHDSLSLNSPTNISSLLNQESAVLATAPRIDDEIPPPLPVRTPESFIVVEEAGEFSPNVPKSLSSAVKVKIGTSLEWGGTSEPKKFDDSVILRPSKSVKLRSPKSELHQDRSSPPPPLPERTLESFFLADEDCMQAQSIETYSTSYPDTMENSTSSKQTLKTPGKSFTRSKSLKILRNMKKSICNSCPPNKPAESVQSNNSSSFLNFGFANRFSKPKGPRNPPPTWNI
Kind of assay: SAR LYP1 Fluorescent Assay using OMFP substrate for In Vitro dose response studies - Set 2. [Related pubchem assays (depositor defined):AID1779, AID1784, AID2140, AID449726, AID488869]. The class given is functional.

Assay [2] concerns the target T1, Tyrosine-protein phosphatase non-receptor type 22. As to the kind of experiment: SAR LYP1 Fluorescent Assay using pCAP substrate for In Vitro dose response studies - Set 2. [Related pubchem assays (depositor defined):AID1779, AID1784, AID2135, AID449727]. The class given is functional.
Assay [3] shares this target. As to the kind of experiment: inhibition of lymphoid tyrosine phosphatase LYP – biochemical, pCAP fluorogenic substrate, fluorescence, set 3, SAR follow-up (AID 449727). Format: functional.
Assay [4] addresses T2, Tyrosine-protein phosphatase non-receptor type 12 (Homo sapiens, UniProt Q05209).
T2 sequence (Q05209 whole entry): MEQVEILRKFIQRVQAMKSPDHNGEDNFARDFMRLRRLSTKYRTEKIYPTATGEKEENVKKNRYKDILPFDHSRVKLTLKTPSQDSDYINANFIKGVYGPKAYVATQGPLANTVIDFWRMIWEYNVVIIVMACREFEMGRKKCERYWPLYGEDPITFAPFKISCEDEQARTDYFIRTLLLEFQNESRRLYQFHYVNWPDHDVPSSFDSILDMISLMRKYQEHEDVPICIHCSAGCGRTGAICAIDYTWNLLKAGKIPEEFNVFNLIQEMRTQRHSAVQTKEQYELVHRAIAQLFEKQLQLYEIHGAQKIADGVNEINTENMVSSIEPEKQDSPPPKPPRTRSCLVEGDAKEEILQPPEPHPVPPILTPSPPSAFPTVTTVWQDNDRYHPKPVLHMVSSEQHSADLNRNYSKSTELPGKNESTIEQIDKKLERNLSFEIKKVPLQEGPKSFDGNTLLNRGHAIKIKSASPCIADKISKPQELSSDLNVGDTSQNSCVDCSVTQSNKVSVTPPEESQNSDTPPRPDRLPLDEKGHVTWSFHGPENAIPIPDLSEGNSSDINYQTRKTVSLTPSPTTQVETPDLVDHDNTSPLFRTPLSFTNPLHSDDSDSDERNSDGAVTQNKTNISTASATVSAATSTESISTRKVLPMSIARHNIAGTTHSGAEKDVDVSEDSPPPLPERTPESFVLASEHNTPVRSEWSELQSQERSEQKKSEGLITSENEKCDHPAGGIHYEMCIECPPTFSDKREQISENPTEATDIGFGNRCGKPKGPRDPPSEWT
Kind of assay: SAR Selectivity Analysis of small molecule inhibitors of PEST using pCAP in a fluorescence assay. [Related pubchem assays (depositor defined):AID1779, AID1784, AID2135]. Format: functional.

Assay [5] addresses T1, Tyrosine-protein phosphatase non-receptor type 22. As to the kind of experiment: SAR LYP1 Fluorescent Assay using OMFP substrate for In Vitro dose response studies - Set 3. [Related pubchem assays (depositor defined):AID1779, AID1784, AID2140, AID2686]. The class given is functional.
For assay [6], the target named is T3, Tyrosine-protein phosphatase non-receptor type 7 (Homo sapiens, UniProt P35236).
T3 sequence (P35236 whole entry): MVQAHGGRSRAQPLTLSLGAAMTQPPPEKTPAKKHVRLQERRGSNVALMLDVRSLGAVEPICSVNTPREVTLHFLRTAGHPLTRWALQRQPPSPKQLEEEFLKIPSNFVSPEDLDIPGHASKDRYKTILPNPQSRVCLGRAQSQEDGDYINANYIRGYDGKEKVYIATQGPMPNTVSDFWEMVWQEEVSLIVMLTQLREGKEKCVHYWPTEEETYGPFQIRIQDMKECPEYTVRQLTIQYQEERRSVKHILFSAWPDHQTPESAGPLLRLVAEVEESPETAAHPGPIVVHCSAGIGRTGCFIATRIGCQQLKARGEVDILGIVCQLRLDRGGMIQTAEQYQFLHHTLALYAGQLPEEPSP
Kind of assay: inhibition of hematopoietic tyrosine phosphatase HePTP – biochemical, set 2, SAR follow-up (AID 449736). The class given is functional.

Assay [7] deals with 5-hydroxytryptamine receptor 5A (Homo sapiens, UniProt P47898). As to the kind of experiment: Counterscreen for agonists of OPRM1-OPRD1 heterodimerization: luminescence-based cell-based high throughput dose response assay to identify agonists of 5-hydroxytryptamine (serotonin) 5A receptor (HTR5A). [Related pubchem assays (depositor defined):AID504326, AID504355, AID504692, AID504904, AID504905]. The class given is functional.

Another assay has as its target Mu-type opioid receptor (Homo sapiens, UniProt P35372). Kind of assay: Counterscreen for agonists of heterodimerization of the mu 1 (OPRM1) and delta 1 (OPRD1) opioid receptors: Luminescence-based cell-based high throughput dose response assay to identify agonists of OPRM1 homodimerization. Format: functional.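 Also: U2OS cells expressing OPRM1 and beta-arrestin as split beta-galactosidase partners.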
Assay [8] has as its target Delta-type opioid receptor (Homo sapiens, UniProt P41143). As to the kind of experiment: Counterscreen for agonists of heterodimerization of the mu 1 (OPRM1) and delta 1 (OPRD1) opioid receptors: Luminescence-based cell-based high throughput dose response assay to identify agonists of OPRD1 homodimerization. [Related pubchem assays (depositor defined):AID504326, AID504355, AID504692, AID504904, AID504905]. The class given is functional.

Assay [9] concerns the target T4, Ubiquitin-conjugating enzyme E2 N (Homo sapiens, UniProt P61088).
T4 sequence (P61088 whole entry): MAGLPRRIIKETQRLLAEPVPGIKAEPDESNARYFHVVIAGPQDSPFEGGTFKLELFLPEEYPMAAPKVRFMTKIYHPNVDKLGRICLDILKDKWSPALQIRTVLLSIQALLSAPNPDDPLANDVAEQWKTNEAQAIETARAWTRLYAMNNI
The class given is functional.

In assay [10] the target is T4, Ubiquitin-conjugating enzyme E2 N. Format: functional. The source holds these as a separate data set.
In a further assay the target is T5, Bcl-2-related protein A1 (Mus musculus, UniProt Q07440).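 Also: confirmatory dose–response counterscreen on Bfl-1, used to check hits from a UBC13 polyubiquitin inhibitor campaign.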
T5 sequence (Q07440 whole entry): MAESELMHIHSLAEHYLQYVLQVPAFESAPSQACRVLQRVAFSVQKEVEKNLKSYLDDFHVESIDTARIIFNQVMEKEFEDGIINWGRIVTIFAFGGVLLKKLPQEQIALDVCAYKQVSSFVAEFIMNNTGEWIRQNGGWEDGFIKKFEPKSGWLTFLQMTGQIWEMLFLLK
Format: functional.

The target in assay [11] is T6, Short transient receptor potential channel 4 (Mus musculus, UniProt Q9QUQ5).
T6 sequence (Q9QUQ5 whole entry): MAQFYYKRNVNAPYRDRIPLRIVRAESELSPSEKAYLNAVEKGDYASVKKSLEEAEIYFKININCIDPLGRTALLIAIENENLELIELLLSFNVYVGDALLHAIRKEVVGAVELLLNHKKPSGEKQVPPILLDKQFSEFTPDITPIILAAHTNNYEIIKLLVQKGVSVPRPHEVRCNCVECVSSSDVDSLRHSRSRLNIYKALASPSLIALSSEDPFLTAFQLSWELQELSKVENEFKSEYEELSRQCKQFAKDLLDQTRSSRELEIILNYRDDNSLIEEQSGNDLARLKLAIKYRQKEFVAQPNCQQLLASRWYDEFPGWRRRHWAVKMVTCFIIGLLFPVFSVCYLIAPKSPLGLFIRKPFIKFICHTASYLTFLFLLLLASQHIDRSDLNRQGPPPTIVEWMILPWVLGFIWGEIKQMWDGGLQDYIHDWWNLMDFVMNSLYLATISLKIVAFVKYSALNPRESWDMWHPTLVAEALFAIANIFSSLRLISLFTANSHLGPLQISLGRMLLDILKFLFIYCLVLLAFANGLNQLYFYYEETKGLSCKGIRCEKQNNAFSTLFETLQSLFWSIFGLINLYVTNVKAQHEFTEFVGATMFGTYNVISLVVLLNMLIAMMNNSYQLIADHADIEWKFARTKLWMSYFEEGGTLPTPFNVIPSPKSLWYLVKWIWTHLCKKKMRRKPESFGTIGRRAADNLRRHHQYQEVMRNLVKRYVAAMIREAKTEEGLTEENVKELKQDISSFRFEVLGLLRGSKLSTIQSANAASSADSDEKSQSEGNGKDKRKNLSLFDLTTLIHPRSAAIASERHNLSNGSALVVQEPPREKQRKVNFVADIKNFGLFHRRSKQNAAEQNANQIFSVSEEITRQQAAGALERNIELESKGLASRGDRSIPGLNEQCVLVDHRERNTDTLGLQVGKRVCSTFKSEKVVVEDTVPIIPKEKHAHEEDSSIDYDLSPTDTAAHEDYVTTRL
As to the kind of experiment: calcium entry via TRPC4 opening agents – cell-based, HEK293 TRPC4/mu-opioid, Fluo-4 calcium, dose response (AID 434937). Format: functional.

Active and inactive are the calls of the source. Rule as the data show it, for most assays here: actives have a measured IC50 and inactives only a lower limit.

Chain of 5-hydroxytryptamine receptor 5A (P47898 whole entry): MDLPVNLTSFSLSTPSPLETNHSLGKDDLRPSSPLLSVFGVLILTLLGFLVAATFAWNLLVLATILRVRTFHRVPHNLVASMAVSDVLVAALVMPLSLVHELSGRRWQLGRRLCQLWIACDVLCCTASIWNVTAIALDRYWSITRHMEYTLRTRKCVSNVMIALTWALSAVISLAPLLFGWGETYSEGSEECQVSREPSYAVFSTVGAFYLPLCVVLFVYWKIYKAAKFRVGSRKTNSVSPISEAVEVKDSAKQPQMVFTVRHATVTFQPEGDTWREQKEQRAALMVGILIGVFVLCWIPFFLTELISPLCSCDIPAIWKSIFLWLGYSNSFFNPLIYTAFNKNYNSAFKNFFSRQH
Chain of Mu-type opioid receptor (P35372 whole entry): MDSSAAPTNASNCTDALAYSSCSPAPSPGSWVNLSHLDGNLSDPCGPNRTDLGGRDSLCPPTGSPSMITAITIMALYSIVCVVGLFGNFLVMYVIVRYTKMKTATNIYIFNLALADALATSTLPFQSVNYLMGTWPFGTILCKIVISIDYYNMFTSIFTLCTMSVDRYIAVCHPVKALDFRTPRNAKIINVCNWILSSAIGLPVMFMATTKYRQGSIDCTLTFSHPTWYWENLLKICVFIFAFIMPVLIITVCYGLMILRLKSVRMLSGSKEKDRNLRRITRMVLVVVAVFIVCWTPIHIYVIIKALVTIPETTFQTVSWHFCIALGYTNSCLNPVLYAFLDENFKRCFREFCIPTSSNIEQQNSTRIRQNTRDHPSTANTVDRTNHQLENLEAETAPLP
Chain of Delta-type opioid receptor (P41143 whole entry): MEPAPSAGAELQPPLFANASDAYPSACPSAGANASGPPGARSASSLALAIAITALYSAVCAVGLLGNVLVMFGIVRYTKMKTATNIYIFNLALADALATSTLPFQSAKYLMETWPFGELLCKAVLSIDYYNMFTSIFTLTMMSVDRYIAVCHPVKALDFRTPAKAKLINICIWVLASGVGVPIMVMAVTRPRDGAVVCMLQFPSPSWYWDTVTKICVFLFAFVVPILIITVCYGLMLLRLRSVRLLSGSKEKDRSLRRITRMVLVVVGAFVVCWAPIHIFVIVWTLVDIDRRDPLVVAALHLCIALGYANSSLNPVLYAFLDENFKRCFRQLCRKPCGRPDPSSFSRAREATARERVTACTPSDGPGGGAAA

Turning to `C#CC(C)(CC)NC(=O)c1cc2cccc(CC=C)c2oc1=O` (centres undefined), the concentration at half-maximal activity (AC50) in the assay with Escherichia coli is 23.8 µM (active).
`COc1cc(/C=C2/SC(=S)N(c3cccc(C(=O)O)c3)C2=O)cc(Cl)c1OCc1cccc(C(=O)O)c1`: the IC50 was 14.6 µM (active) in assay [1]; 12.2 µM (active) in [2]; 20.4 µM (active) in assay [3]; 2.81 µM (active) in assay [4]; 62.8 µM (active) in assay [5]; 3.81 µM (active) in assay [6].
With `COc1cc(/C=C2/SC(=S)N(c3cccc(C(=O)O)c3)C2=O)ccc1OCc1ccc(Cl)cc1`, the IC50 in [1] was 4.04 µM (active); in assay [2], 3.68 µM (active); in assay [3], 3.49 µM (active); in assay [4] it was 0.953 µM (active); in assay [5] it was 3.06 µM (active); in assay [6], 0.394 µM (active).
`CCN1CCN(S(=O)(=O)c2ccc(Cl)c(C(=O)N(CCc3ccccc3)Cc3ccccc3)c2)CC1`: the EC50 (in assay [7]; on Mu-type opioid receptor; in [8]) was > 92.5 µM (inactive) throughout.
For the compound `Cc1cccnc1NC(=O)c1cccc(S(=O)(=O)N2CCCc3ccccc32)c1`, the AC50 in the assay with Escherichia coli is 23.6 µM (active).
On to `CN(C)CCCN(C(=O)c1ccc(S(=O)(=O)N2CCCCC2)cc1)c1nc2cc3c(cc2s1)OCO3`, for which the IC50 in assay [9] is 12.7 µM (active); in [10], > 20 µM (inactive); on Bcl-2-related protein A1, > 20 µM (inactive).
`O=C(CSc1nccn1Cc1ccccc1)NC1CCCC1`: the AC50 in the assay on Escherichia coli is 25.5 µM (active).
As for `CCOc1ccc(NC(=O)Cn2c(=O)n(CCCC(=O)NC3CCN(Cc4ccccc4)CC3)c(=O)c3ccccc32)cc1`, the IC50 in assay [9] is 5.27 µM (active); in assay [10], 5.19 µM (active); on Bcl-2-related protein A1 it was > 20 µM (inactive).
As for `COc1ccc(C(CNC(=O)c2ccc3c(c2)CCC3)N(C)C)cc1` (centres undefined), the EC50 in assay [7] is > 92.5 µM (inactive); in assay [11], 0.0053 µM (active); on Mu-type opioid receptor it was 0.503 µM (active); in assay [8], 7.36 µM (active).
With `CCOc1ccc(/C=N/NC(=O)c2ccc(-c3csc(Nc4ccc(C)cc4)n3)cc2)cc1OCC`, the IC50 in assay [1] was 95.3 µM (active); in [2], > 100 µM (inactive); in assay [3] it was > 100 µM (inactive); in [4], > 100 µM (inactive); in assay [5], > 100 µM (inactive); in [6], 60.8 µM (active).
